The values that follow come from ChEMBL document CHEMBL6178016, “Design, Synthesis, and Biological Evaluation of New PDE4 Inhibitors for the Treatment of Pressure Ulcers” (J Med Chem, 2025).

pIC50: −log10 of the molar value. Active and inactive are the calls of the source. The rule behind the calls is not given here. Bounds are passed on as bounds.

In test [1] the target is T1, 3',5'-cyclic-AMP phosphodiesterase 4D (Homo sapiens, UniProt Q08499). The test is described as follows: Inhibition of PDE4D (unknown origin) at 1 uM relative to control.
Test [2] has as its system RAW264.7. The test is described as follows: Cytotoxicity against mouse RAW264.7 cells at 10 uM measured after 24 hrs by CCK-8 method. It counts as functional, cell-based.
For test [3], the target named is T1, 3',5'-cyclic-AMP phosphodiesterase 4D. The test is described as follows: Inhibition of PDE4D (unknown origin).
Test [4] relates to RAW264.7. Briefly: Antiinflammatory activity against mouse RAW264.7 cells assessed as inhibition of LPS-induced NO release preincubated for 2 hrs followed by LPS stimulation and measured after 4 hrs by RT-PCR analysis. The format is functional, cell-based.
For test [5], the system named is RAW264.7. Briefly: Cytotoxicity against mouse RAW264.7 cells measured after 24 hrs by CCK-8 method. It counts as functional.
Test [6] relates to RAW264.7. The test is described as follows: Antiinflammatory activity against mouse RAW264.7 cells assessed as inhibition of LPS-induced TNF-alpha release preincubated for 2 hrs followed by LPS stimulation and measured after 4 hrs by RT-PCR analysis. The format is functional, cell-based.
The test system of test [7] is Enterococcus faecium. The test is described as follows: Antibacterial activity against Enterococcus faecium BNCC358275 assessed as reduction in bacterial colonies growth at 512 ug/ml measured after 24 hrs by agar plate method. The format is functional, organism-based. Particulars: dose 512.0 µg/ml.
The test system of test [8] is Enterococcus faecalis. Briefly: Antibacterial activity against Enterococcus faecalis BNCC296862 assessed as reduction in bacterial colonies growth at 512 ug/ml measured after 24 hrs by agar plate method. It counts as functional, organism-based. Particulars: dose 512.0 µg/ml.
The test system of test [9] is Rattus norvegicus. The test is described as follows: Antiinflammatory activity against male Sprague-Dawley rat pressure ulcer model assessed as appearance of orderly arranged cells administered as ointment by H and E staining based analysis. The format is functional, organism-based.
Test [10] has as its system Rattus norvegicus. The test is described as follows: Antiinflammatory activity against male Sprague-Dawley rat pressure ulcer model assessed as increase in number of fibroblasts administered as ointment by Masson staining based analysis. It counts as functional, organism-based.
Test [11] has as its system Rattus norvegicus. Briefly: Antiinflammatory activity against male Sprague-Dawley rat pressure ulcer model assessed as increase in number of fibroblasts administered as ointment by H and E staining based analysis. The format is functional, organism-based.
Test [12] relates to Rattus norvegicus. The test is described as follows: Antiinflammatory activity against male Sprague-Dawley rat pressure ulcer model assessed as decrease in inflammatory cells in dermis administered as ointment by Masson staining based analysis. It counts as functional, organism-based.
Test [13] deals with Rattus norvegicus. Briefly: Antiinflammatory activity against male Sprague-Dawley rat pressure ulcer model assessed as appearance of orderly arranged cells administered as ointment by Masson staining based analysis. The format is functional, organism-based.
Test [14] has as its system Rattus norvegicus. The test is described as follows: Antiinflammatory activity against male Sprague-Dawley rat pressure ulcer model assessed as decrease in inflammatory cells in dermis administered as ointment by H and E staining based analysis. It counts as functional, organism-based.
In test [15] the test system is Rattus norvegicus. Briefly: Antiinflammatory activity against male Sprague-Dawley rat pressure ulcer model assessed as appearance of thinner epidermal layer administered as ointment by Masson staining based analysis. It counts as functional, organism-based.
Test [16] has as its system Rattus norvegicus. The test is described as follows: Antiinflammatory activity against male Sprague-Dawley rat pressure ulcer model assessed as reduction in TNF-alpha mRNA expression in skin administered as ointment by qRT-PCR analysis. The format is functional, organism-based.
The test system of test [17] is Rattus norvegicus. Briefly: Antiinflammatory activity against male Sprague-Dawley rat pressure ulcer model assessed as appearance of thinner epidermal layer administered as ointment by H and E staining based analysis. The format is functional, organism-based.
In test [18] the test system is Rattus norvegicus. The test is described as follows: Antiinflammatory activity against male Sprague-Dawley rat pressure ulcer model assessed as reduction in IL6 mRNA expression in skin administered as ointment by qRT-PCR analysis. The format is functional, organism-based.
Test [19] relates to Rattus norvegicus. Briefly: Antiinflammatory activity against male Sprague-Dawley rat pressure ulcer model assessed as wound healing rate administration as ointment measured after 7 days (reference value: 70%). The format is functional. The conditions noted are these: time 7 day.

T1 sequence (Q08499 whole entry): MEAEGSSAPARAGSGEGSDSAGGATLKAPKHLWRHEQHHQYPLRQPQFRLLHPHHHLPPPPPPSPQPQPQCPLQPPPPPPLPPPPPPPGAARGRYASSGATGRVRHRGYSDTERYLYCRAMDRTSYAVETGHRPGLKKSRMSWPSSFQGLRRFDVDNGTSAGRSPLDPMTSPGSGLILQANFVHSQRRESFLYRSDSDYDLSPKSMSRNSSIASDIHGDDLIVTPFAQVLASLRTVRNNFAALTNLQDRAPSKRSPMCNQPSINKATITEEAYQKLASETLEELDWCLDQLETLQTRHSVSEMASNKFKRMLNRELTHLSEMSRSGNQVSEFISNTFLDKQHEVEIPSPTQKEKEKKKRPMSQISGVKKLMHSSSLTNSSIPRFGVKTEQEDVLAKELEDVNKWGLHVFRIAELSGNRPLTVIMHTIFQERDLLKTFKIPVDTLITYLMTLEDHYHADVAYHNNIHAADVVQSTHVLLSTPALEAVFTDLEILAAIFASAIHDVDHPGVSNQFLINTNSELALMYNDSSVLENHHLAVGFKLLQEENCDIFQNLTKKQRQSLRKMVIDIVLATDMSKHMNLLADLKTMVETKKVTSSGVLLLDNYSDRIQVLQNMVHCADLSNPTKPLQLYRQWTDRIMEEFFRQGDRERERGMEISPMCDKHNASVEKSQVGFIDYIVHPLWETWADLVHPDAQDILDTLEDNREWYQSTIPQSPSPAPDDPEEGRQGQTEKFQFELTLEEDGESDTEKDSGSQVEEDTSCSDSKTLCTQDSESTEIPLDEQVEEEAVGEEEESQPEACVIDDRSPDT

In the case of `Cn1c(=O)c2c(ncn2CCC(=O)NNC(=O)c2cnn3c(-c4ccc(OC(F)F)c(OCC5CC5)c4)ccnc23)n(C)c1=O`, the inhibition in test [1] was 38.8%. In addition, the outcome in test [2] was inactive.

In turn, `Cn1c(=O)c2c(ncn2CCC(=O)NNC(=O)c2csc(-c3ccc(OC(F)F)c(OCC4CC4)c3)n2)n(C)c1=O` gave an inhibition in test [1] of 87.5%. Further, the result in test [2] was inactive.

Consider `Cn1c(=O)c2c(nc(NCc3ccccc3)n2CCCC(=O)NNC(=O)c2cccc3[nH]c(-c4ccc(OC(F)F)c(OC(F)F)c4)nc23)n(C)c1=O`, for which, in test [1], the inhibition stood at 92.4%. Also, the outcome in [2] was inactive.

For the molecule `Cn1c(=O)c2c(ncn2CCC(=O)NNC(=O)c2cccc3[nH]c(-c4ccc(OC(F)F)c(OC(F)F)c4)nc23)n(C)c1=O`, the pIC50 in test [3] was 7.54. In test [1], this molecule registered an inhibition of 92.6%. Besides, in test [2], the outcome was inactive.

Consider `Cn1c(=O)c2c(ncn2CCC(=O)NNC(=O)c2c[nH]c(-c3ccc(OC(F)F)c(OC(F)F)c3)n2)n(C)c1=O`, for which the inhibition in test [1] amounted to 82.1%. Also, the outcome in test [2] was inactive.

In [1], `Cn1c(=O)c2c(nc(NCc3ccccc3)n2CCCC(=O)NNC(=O)c2cccc3[nH]c(-c4ccc(OC(F)F)c(OCC5CC5)c4)nc23)n(C)c1=O` returned an inhibition of 85.7%. Besides, the result in [2] was inactive.

Turning to `Cn1c(=O)c2c(ncn2CCCC(=O)NNC(=O)c2cc3nccc(-c4ccc(OC(F)F)c(OCC5CC5)c4)n3n2)n(C)c1=O`, the inhibition in test [1] was determined as 95.6%. The outcome in test [2] was inactive.

`Cn1c(=O)c2c(nc(NCc3ccccc3)n2CCCC(=O)NNC(=O)c2cc3nccc(-c4ccc(OC(F)F)c(OCC5CC5)c4)n3n2)n(C)c1=O` gave an inhibition in test [1] of 43%. Moreover, the outcome in [2] was inactive.

For `Cn1c(=O)c2c(ncn2CCCC(=O)NNC(=O)c2cccc3[nH]c(-c4ccc(OC(F)F)c(OC(F)F)c4)nc23)n(C)c1=O`, the pIC50 is 5.66 in [4], 7.39 in [3] and < 4.22 in test [6]. Also, in [5], the midpoint of cytotoxicity, the CC50, lay at 76800 nM. In [1], this molecule returned an inhibition of 97.9%. The result in test [2] was inactive.

Turning to `Cn1c(=O)c2c(nc(Br)n2CCCC(=O)NNC(=O)c2csc(-c3ccc(OC(F)F)c(OCC4CC4)c3)n2)n(C)c1=O`, the inhibition in [1] was determined as 97.2%. In [2], the outcome was inactive.

As to `Cn1c(=O)c2c(nc(Br)n2CCCC(=O)NNC(=O)c2cc3nccc(-c4ccc(OC(F)F)c(OCC5CC5)c4)n3n2)n(C)c1=O`, the pIC50 in test [3] is 6.56. This molecule registered an inhibition in [1] of 94.7%. Further, the outcome in test [2] was inactive.

`Cn1c(=O)c2c(ncn2CCC(=O)NNC(=O)c2coc(-c3ccc(OC(F)F)c(OCC4CC4)c3)n2)n(C)c1=O` displayed an inhibition in test [1] of 63%. For the same molecule, the outcome in test [2] was inactive.

`Cn1c(=O)c2c(nc(NCc3ccccc3)n2CCCC(=O)NNC(=O)c2csc(-c3ccc(OC(F)F)c(OCC4CC4)c3)n2)n(C)c1=O` had an inhibition in [1] of 89.9%. For the same molecule, the outcome in [2] was inactive.

Consider `Cn1c(=O)c2c(ncn2CCCC(=O)NNC(=O)c2cnn3c(-c4ccc(OC(F)F)c(OCC5CC5)c4)ccnc23)n(C)c1=O`, for which the inhibition in test [1] was determined as 85.7%. Further, the result in [2] was inactive.

In turn, `Cn1c(=O)c2c(ncn2CCCC(=O)NNC(=O)c2coc(-c3ccc(OC(F)F)c(OCC4CC4)c3)n2)n(C)c1=O` had an inhibition in [1] of 92.4%. For the same molecule, the result in test [2] was inactive.

In [1], `Cn1c(=O)c2c(ncn2CCCC(=O)NNC(=O)c2cccc3[nH]c(-c4ccc(OC(F)F)c(OCC5CC5)c4)nc23)n(C)c1=O` gave an inhibition of 96.8%. Further, the result in test [2] was inactive.

For `CN[C@H](CC(C)C)C(=O)N[C@H]1C(=O)N[C@@H](CC(N)=O)C(=O)N[C@H]2C(=O)N[C@H]3C(=O)N[C@H](C(=O)N[C@H](C(=O)O)c4cc(O)cc(O)c4-c4cc3ccc4O)[C@H](O)c3ccc(c(Cl)c3)Oc3cc2cc(c3O[C@@H]2O[C@H](CO)[C@@H](O)[C@H](O)[C@H]2O[C@H]2C[C@](C)(N)[C@H](O)[C@H](C)O2)Oc2ccc(cc2Cl)[C@H]1O`, the outcome in test [7] and in test [8] was Active.

As for `Cn1c(=O)c2c(ncn2CCC(=O)NNC(=O)c2cccc3[nH]c(-c4ccc(OC(F)F)c(OCC5CC5)c4)nc23)n(C)c1=O`, the inhibition in test [1] is 96.9%. Further, the result in [2] was inactive.

With `Cn1c(=O)c2c(nc(Br)n2CCCC(=O)NNC(=O)c2coc(-c3ccc(OC(F)F)c(OCC4CC4)c3)n2)n(C)c1=O`, the inhibition in test [1] is 85.3%. In addition, the outcome in [2] was inactive.

With `COc1ccc(C2CNC(=O)C2)cc1OC1CCCC1` (stereo not given) [ROLIPRAM], the pIC50 is < 4.22 in [4] and 4.40 in [6]. In addition, the 50% cytotoxic concentration (CC50) in test [5] is > 60000 nM.

Take `Cn1c(=O)c2c(nc(Br)n2CCCC(=O)NNC(=O)c2cccc3[nH]c(-c4ccc(OC(F)F)c(OC(F)F)c4)nc23)n(C)c1=O`: in test [1], the inhibition was found to be 96.8%. Also, in test [2], the result was inactive.

`Cn1c(=O)c2c(nc(NCc3ccccc3)n2CCCC(=O)NNC(=O)c2coc(-c3ccc(OC(F)F)c(OCC4CC4)c3)n2)n(C)c1=O` registered an inhibition in test [1] of 85.5%. In addition, the result in test [2] was inactive.

Regarding `Cn1c(=O)c2c(nc(NCc3ccccc3)n2CCCC(=O)NNC(=O)c2cnn3c(-c4ccc(OC(F)F)c(OCC5CC5)c4)ccnc23)n(C)c1=O`, the inhibition in test [1] was determined as 30.3%. The result in [2] was inactive.

In the case of `Cn1c(=O)c2c(nc(Br)n2CCCC(=O)NNC(=O)c2cccc3[nH]c(-c4ccc(OC(F)F)c(OCC5CC5)c4)nc23)n(C)c1=O`, the inhibition in test [1] was determined as 99.2%. For the same molecule, the result in test [2] was inactive.

For `Cn1c(=O)c2c(ncn2CCCC(=O)NNC(=O)c2csc(-c3ccc(OC(F)F)c(OCC4CC4)c3)n2)n(C)c1=O`, the inhibition in [1] was found to be 98.4%. For the same molecule, the outcome in test [2] was inactive.

With `Cn1c(=O)c2c(ncn2CCC(=O)NNC(=O)c2c[nH]c(-c3ccc(OC(F)F)c(OCC4CC4)c3)n2)n(C)c1=O`, in test [1], the inhibition amounted to 96.4%. Also, the outcome in test [2] was inactive.

In the case of `O=C(Nc1c(Cl)cncc1Cl)c1ccc(OC(F)F)c(OCC2CC2)c1` [ROFLUMILAST], the result in test [9], in [10], in test [11], in test [12], in test [13] and in test [14] was Active. Also, the result in test [15], in test [16], in test [17] and in test [18] was Active. Further, the Activity in test [19] amounted to 81%.
